Consider 25 compounds from PubChem BioAssay AID256 (DTP/NCI, 2004).

Values joined by “and” are separate entries in the source; they are usually repeats but may differ in a detail not shown here. Equal values may be shown once. Toxic doses and inconclusive results are not listed.

The assay concerns CD2F1 mice, L1210 leukemia ip, survival T/C. The assay can be described thus: NCI In Vivo Anticancer Drug Screen. Data for tumor model L1210 Leukemia (intraperitoneal) in CD2F1 (CDF1) mice. As to conditions: higher = longer survival. The method in brief: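 In this screen, transplantable tumors were grown in mice given either the compound or its vehicle. Results were expressed as the treated measurement relative to the control measurement.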

The mark [1] stands for this setting: endpoint: mean survival time, dose: 100.0 mg/kg/injection, schedule: Q04DX003 (ip), vehicle: saline with Tween-80.
[2] abbreviates: endpoint: mean survival time, dose: 200.0 mg/kg/injection, schedule: Q04DX003 (ip), vehicle: saline with Tween-80.
[3] abbreviates: endpoint: mean survival time, dose: 400.0 mg/kg/injection, schedule: Q04DX003 (ip), vehicle: saline with Tween-80.
[4] abbreviates: endpoint: mean survival time, dose: 100.0 mg/kg/injection, schedule: Q04DX002 (ip), vehicle: saline with Tween-80.
The mark [5] stands for this setting: endpoint: mean survival time, dose: 200.0 mg/kg/injection, schedule: Q04DX002 (ip), vehicle: saline with Tween-80.
[6] abbreviates: endpoint: mean survival time, dose: 100.0 mg/kg/injection, schedule: Q01DX001 (ip), vehicle: saline with Tween-80.
The mark [7] stands for this setting: endpoint: mean survival time, dose: 200.0 mg/kg/injection, schedule: Q01DX001 (ip), vehicle: saline with Tween-80.
The mark [8] stands for this setting: endpoint: mean survival time, dose: 400.0 mg/kg/injection, schedule: Q01DX001 (ip), vehicle: saline with Tween-80.
Setting [9] is: endpoint: mean survival time, dose: 25.0 mg/kg/injection, schedule: Q01DX009 (ip), vehicle: Klucel (hydroxypropylcellulose) (HPC).
Where [10] appears, read: endpoint: mean survival time, dose: 50.0 mg/kg/injection, schedule: Q01DX009 (ip), vehicle: Klucel (hydroxypropylcellulose) (HPC).
Where [11] appears, read: endpoint: mean survival time, dose: 100.0 mg/kg/injection, schedule: Q01DX009 (ip), vehicle: Klucel (hydroxypropylcellulose) (HPC).
[12] abbreviates: endpoint: mean survival time, dose: 200.0 mg/kg/injection, schedule: Q01DX009 (ip), vehicle: Klucel (hydroxypropylcellulose) (HPC).
The mark [13] stands for this setting: endpoint: mean survival time, dose: 400.0 mg/kg/injection, schedule: Q04DX002 (ip), vehicle: saline with Tween-80.

`Nc1nc2c(ncn2-c2ccc(NC(=O)c3cccc(S(=O)(=O)F)c3)cc2)c(=O)[nH]1`: the T/C (endpoint: mean survival time, dose: 37.5 mg/kg/injection, schedule: Q04DX002 (ip), vehicle: saline with Tween-80) was 90 % of control; the T/C (endpoint: mean survival time, dose: 75.0 mg/kg/injection, schedule: Q04DX002 (ip), vehicle: saline with Tween-80) was 111 % of control; the T/C (endpoint: mean survival time, dose: 150.0 mg/kg/injection, schedule: Q04DX002 (ip), vehicle: saline with Tween-80) was 94 % of control.

In the case of `OCCN1CCSC1=S`, the T/C is 101 % of control under setting [1], 97 % of control under setting [2] and 92 % of control under setting [3].

With `CC(=O)NNC(=O)CC(O)(c1ccccc1)c1ccccc1`, the T/C reads like this: under setting [4], 113 % of control; under setting [5], 95 % of control.

As for `CCCC1NNC(CCC)NN1` (stereo not drawn), where the note is “endpoint: mean survival time, dose: 75.0 mg/kg/injection, schedule: Q01DX001 (ip), vehicle: saline”, the T/C is 102 % of control.

In the case of `CCC(CC)n1c(C)cc(=O)n1C(CC)CC`, the T/C is, setting by setting: (endpoint: mean survival time, dose: 5.0 mg/kg/injection, schedule: Q01DX001 (ip), vehicle: saline) 97 % of control; (endpoint: mean survival time, dose: 10.0 mg/kg/injection, schedule: Q01DX001 (ip), vehicle: saline) 97 % of control; (endpoint: mean survival time, dose: 20.0 mg/kg/injection, schedule: Q01DX001 (ip), vehicle: saline) 95 % of control.

`CCc1c(C)c(=O)n(C)c2ccccc12`: the T/C under setting [1] is 98 % of control, the T/C under setting [2] is 101 % of control and the T/C under setting [3] was 102 % of control.

For the compound `COc1ccc(N2CSC(=S)N(c3ccc(OC)cc3)C2)cc1`, the T/C (endpoint: mean survival time, dose: 100.0 mg/kg/injection, schedule: Q04DX003 (ip), vehicle: other) is 94 % of control.

For `O=[N+]([O-])c1c(Br)sc(Br)c1[N+](=O)[O-]`, the T/C runs as follows: (endpoint: mean survival time, dose: 12.5 mg/kg/injection, schedule: Q01DX009 (ip), vehicle: saline with Tween-80) 97 % of control; (endpoint: mean survival time, dose: 12.5 mg/kg/injection, schedule: Q04DX003 (ip), vehicle: saline with Tween-80) 101 % of control; (endpoint: mean survival time, dose: 25.0 mg/kg/injection, schedule: Q01DX009 (ip), vehicle: saline with Tween-80) 88 % of control; (endpoint: mean survival time, dose: 25.0 mg/kg/injection, schedule: Q04DX003 (ip), vehicle: saline with Tween-80) 103 % of control; (endpoint: mean survival time, dose: 50.0 mg/kg/injection, schedule: Q01DX009 (ip), vehicle: saline with Tween-80) 95 % of control; (endpoint: mean survival time, dose: 50.0 mg/kg/injection, schedule: Q04DX003 (ip), vehicle: saline with Tween-80) 109 % of control.

As for `Cn1c(=O)c2c(ncn2CCNCC(O)c2cc(C(C)(C)C)c(O)c(C(C)(C)C)c2)n(C)c1=O` (stereo not drawn), the T/C (endpoint: mean survival time, dose: 12.5 mg/kg/injection, schedule: Q01DX005 (ip), vehicle: distilled water + Tween-80) was 100 % of control; the T/C (endpoint: mean survival time, dose: 25.0 mg/kg/injection, schedule: Q01DX005 (ip), vehicle: distilled water + Tween-80) was 100 % of control; the T/C (endpoint: mean survival time, dose: 50.0 mg/kg/injection, schedule: Q01DX005 (ip), vehicle: distilled water + Tween-80) is 106 % of control; the T/C (endpoint: mean survival time, dose: 100.0 mg/kg/injection, schedule: Q01DX005 (ip), vehicle: distilled water + Tween-80) was 109 % of control; the T/C (endpoint: mean survival time, dose: 200.0 mg/kg/injection, schedule: Q01DX005 (ip), vehicle: distilled water + Tween-80) is 101 % of control.

Turning to `O=S(=O)(Nc1cc(Cl)c(NS(=O)(=O)c2ccccc2)cc1Cl)c1ccccc1`, the T/C under setting [6] is 96 % of control, the T/C under setting [7] was 88 % of control and the T/C under setting [8] was 93 % of control.

With `Cc1cc(C)c(C(=O)C2Oc3ccccc3C2c2ccccc2)c(C)c1` (stereo not drawn), the T/C is 95 % of control (endpoint: mean survival time, dose: 100.0 mg/kg/injection, schedule: Q01DX009 (ip), vehicle: saline with Tween-80); 100 % of control under setting [1]; 97 % of control (endpoint: mean survival time, dose: 200.0 mg/kg/injection, schedule: Q01DX009 (ip), vehicle: saline with Tween-80); 102 % of control under setting [2]; 91 % of control (endpoint: mean survival time, dose: 400.0 mg/kg/injection, schedule: Q01DX009 (ip), vehicle: saline with Tween-80); 100 % of control under setting [3].

For the compound `Cc1cc(NC(=O)Nc2cc(F)ccc2F)no1`, the T/C under setting [9] was 101 % of control, the T/C under setting [10] is 103 % of control and the T/C under setting [11] is 101 % of control.

As to `COc1c(O)ccc(/C=C2/SC(=S)NC2=O)c1[N+](=O)[O-]`, the T/C under setting [6] is 101 % of control.

As to `CC(C)C1C(=O)CCCC1=O`, the T/C was 102 % of control under setting [1], 105 % of control under setting [2] and 96 % of control under setting [3].

On to `O=C(/C=C/c1ccc(Cl)cc1)/C=C/c1ccc(Cl)cc1`, for which the T/C was 94 % of control under setting [10], 98 % of control under setting [11] and 94 % of control under setting [12].

As to `Cc1c(O)c2c(c(O)c1Cc1ccc(C#N)cc1)C(=O)c1ccccc1C2=O`, the T/C reads like this: (endpoint: mean survival time, dose: 12.5 mg/kg/injection, schedule: Q01DX009 (ip), vehicle: Klucel (hydroxypropylcellulose) (HPC)) 91 % of control; under setting [9], 96 % of control; under setting [11], 90 % of control; under setting [12], 94 % of control.

In the case of `O=C(/C=C\c1ccc(Cl)c(Cl)c1)/C=C/c1ccc(Cl)c(Cl)c1`, the T/C runs as follows: (endpoint: mean survival time, dose: 25.0 mg/kg/injection, schedule: Q04DX002 (ip), vehicle: saline with Tween-80) 95 % of control; (endpoint: mean survival time, dose: 50.0 mg/kg/injection, schedule: Q04DX002 (ip), vehicle: saline with Tween-80) 87 % of control; under setting [4], 106 % of control.

Take `CC1CC(C)(C)OC(C(C)C)O1` (stereo not drawn): the T/C reads like this: under setting [4], 96 % of control; under setting [5], 96 % of control; under setting [13], 96 % of control.

In the case of `C/C=C/C=C(\CC)C(=O)OCC`, the T/C under setting [6] is 97 % of control, the T/C under setting [7] was 97 % of control and the T/C under setting [8] was 86 % of control.

For `CC(=O)OC1CCC2(C)C(C1)C(=O)OC1C2CCC2(C)C(C(C)CCCC(C)C)CCC12` (stereo not drawn), the T/C under setting [1] is 94 % of control, the T/C under setting [2] was 94 % of control and the T/C under setting [3] is 94 % of control.

On to `O=C(OCC1OC(n2cnc(=O)[nH]c2=O)C(OC(=O)c2ccccc2)C1OC(=O)c1ccccc1)c1ccccc1` (stereo not drawn), for which the T/C (endpoint: mean survival time, dose: 1.25 mg/kg/injection, schedule: Q04DX003 (ip), vehicle: saline) was 96 % of control; the T/C (endpoint: mean survival time, dose: 2.5 mg/kg/injection, schedule: Q04DX003 (ip), vehicle: saline) was 101 % of control; the T/C (endpoint: mean survival time, dose: 5.0 mg/kg/injection, schedule: Q04DX003 (ip), vehicle: saline) is 98 % of control; the T/C (endpoint: mean survival time, dose: 10.0 mg/kg/injection, schedule: Q04DX003 (ip), vehicle: saline) was 101 % of control; the T/C (endpoint: mean survival time, dose: 20.0 mg/kg/injection, schedule: Q04DX003 (ip), vehicle: saline) is 98 % of control; the T/C (endpoint: mean survival time, dose: 40.0 mg/kg/injection, schedule: Q04DX003 (ip), vehicle: saline) is 98 % of control.

With `CC(C)(O)C(Cl)S(=O)c1ccccc1` (stereo not drawn), the T/C is 100 % of control (endpoint: mean survival time, dose: 37.5 mg/kg/injection, schedule: Q04DX003 (ip), vehicle: saline with Tween-80); 100 % of control (endpoint: mean survival time, dose: 75.0 mg/kg/injection, schedule: Q04DX003 (ip), vehicle: saline with Tween-80); 88 % of control (endpoint: mean survival time, dose: 85.0 mg/kg/injection, schedule: Q04DX002 (ip), vehicle: saline with Tween-80); 103 % of control (endpoint: mean survival time, dose: 150.0 mg/kg/injection, schedule: Q04DX003 (ip), vehicle: saline with Tween-80); 90 % of control (endpoint: mean survival time, dose: 190.0 mg/kg/injection, schedule: Q04DX002 (ip), vehicle: saline with Tween-80); 102 % of control (endpoint: mean survival time, dose: 300.0 mg/kg/injection, schedule: Q04DX003 (ip), vehicle: saline with Tween-80).

In the case of `COc1cccc2c1C(=O)c1c(O)c3c(c(O)c1C2=O)CC(O)(C(=O)CO)CC3OC1CC(N)C(O)C(C)O1.[Cl][Pt+2][Cl].[NH2-].[NH2-]` (stereo not drawn), the T/C was 152 % of control (endpoint: median survival time, dose: 4.0 mg/kg/injection, schedule: Q04DX003 (ip), vehicle: DMSO); 153 % of control and 154 % of control (endpoint: median survival time, dose: 8.0 mg/kg/injection, schedule: Q04DX003 (ip), vehicle: DMSO).

In the case of `Cc1cccc(OP(N)(=O)Oc2cccc(C)c2)c1`, the T/C is 96 % of control under setting [4], 96 % of control under setting [5] and 96 % of control under setting [13].

As for `Cc1cc(N(CCCl)CCCl)ccc1C=Nc1cccnc1`, the T/C reads like this: under setting [10], 101 % of control; under setting [11], 106 % of control; under setting [12], 110 % of control; (endpoint: mean survival time, dose: 400.0 mg/kg/injection, schedule: Q01DX009 (ip), vehicle: Klucel (hydroxypropylcellulose) (HPC)) 112 % of control.
